Experimental data published in patent EP4000617A1, “COMPOSITIONS FOR USE IN THE TREATMENT OF LEUKAEMIA” (Fundació Institut de Recerca Contra la Leucèmia Josep …, priority 2020, dated 2022).

Tested on: Luc-positive MonoMac-1 AML cells
Assay: Luc-positive MonoMac-1 AML xenograft in NSG mice, bioluminescence imaging
Format: in vivo, NOD-scid IL2Rgamma null (NSG) mice
Conditions: 10 mg/kg intraperitoneally on days 3, 4, 5, 6, 7, 10 and 11, at day 12, in comparison to the control

N,N-dimethyl 3-(10H-benz[b]indeno[2,1-d]thien-10-ylidene) -1-Propanamine [compound 87]
amount of AML cells: remarkable reduction
